Consider one substance from patent US8198033B2, “Methods and materials for observing apoptosis” (Genentech, Inc., priority 2006, dated 2012).

Holding throughout (format): cell-based, human
Experiment [1] has as its system AP2α, AP1/2β, clathrin heavy chain (CHC), dynamin. As to the kind of experiment: Immunoblot for cleavage of clathrin-dependent endocytosis machinery and caspases in cell lysates. The protocol: (b) Colo205 cells were treated as in (a) and analyzed by immunoblot for processing of specific components of various types of clathrin-associated endocytic trafficking.
Open arrows indicate cleavage products and solid arrows indicate full-length proteins.
(c) BJAB cells were treated with crosslinked Apo2L/TRAIL and processing of dynamin was determined by immunoblot.
The cells were analyzed by immunoblot for processing of caspase-8, caspase-9, caspase-3, and AP2α.
Human colorectal adenocarcinoma Colo205 cells human B cell lymphoma BJAB cells and human T cell carcinoma Jurkat wild type cells (A3 clone), FADD-deficient (E1) and caspase-8-deficient (I9.3) were cultured in RPMI 1640+10% fetal bovine serum (FBS)+2 mM glutamine+1000 U/ml Penicillin-Streptomycin (Life Technologies). Human cervical carcinoma HeLa-M cells human breast adenocarcinoma MCF7 and human colorectal adenocarcinomas HCT15, HCT8, SW948, Colo320, human fibrosarcoma HT180 (ATCC), HCT116 Bax(−/−), HCT116 Bax(+/−) were grown in 50:50 Dulbecco's modified Eagle's and FK12 medium+10% FBS+1000 U/ml Penicillin-Streptomycin. cDNA clones encoding temperature-sensitive dynamins were the G273D mutant and dominant negative K44A mutant dynamin-1 (Dyn^G273D and Dyn^K44A, respectively). Dyn^G273D was expressed from pHUSH-ProEx, a single retroviral plasmid tetracycline-inducible expression system constructed at Genentech. The cDNA was first cloned into a shuttle plasmid containing a CMV enhancer-promoter sequence with two copies of the tetracycline operator TetO2, then transferred via in vitro phage lamda-based recombination, or Gateway® technology (Invitrogen, Carlsbad), to a Moloney murine leukemia virus backbone vector in which the wild type Tet repressor is driven by a separate β-actin promoter and followed by an internal ribosomal entry sequence and puromycin selection cassette. Dyn^K44A was expressed from the 2-vector tetracycline-inducible retroviral expression system, pRevTet-On/pRev-Tre (Clontech), using serial infections. Retroviral vectors were transfected into Phoenix amphotropic Moloney Murine Leukemia Virus packaging cells using Lipofectamine 2000 […]. Retroviral particles were harvested and used in HeLa-M and BJAB cell infections as described previously (Simpson et al. J Cell Biol 137, 835-45, 1997). Dyn^G273 infected cells were puromycin selected (2-3 μg/ml) for 1-2 weeks and cloned either by manually picking individual HeLa-M colonies or by FACS sorting of resistant BJAB cells (gated for exclusion of propidium iodide) and single cell seeding in 96-well cell culture plates using an EPICS ELITE-ESP equipped with an Autoclone device (Coulter, Hialeah, Fla.). Cell clones were screened for uniformity of doxycycline inducible dynamin-1 expression by immunofluorescence microscopy. Dyn^K44A-infected cells were hygromycin B (400 μg/ml) and G418 (1 mg/ml) selected for 1-2 weeks. Induction with doxycycline (1 μg/ml) was performed at 32° C. for 72 hr as described previously (Damke et al. J Cell Biol 131, 69-80 1995). Vincristine sulfate (#T-117), Adriamycin.HCL (GR-319) were purchased from Biomol, tetracycline-free FBS from Hyclone, Puromycin from Clontech and Doxycyclin from Sigma. zVAD-fmk (asN-benzyloxycarbonyl-Val-Ala-Asp-fluoromethylketone) was obtained from MD Biosciences (#FK-009). […]
In general terms: In western blotting, separated proteins are transferred to a membrane and probed.

Another experiment relates to DR5. As to the kind of experiment: Temperature-shift DR5 uptake in DynG273D-transduced BJAB cells. Conditions: doxycyclin-stimulated dynG273D expression, 20 min. The protocol: (a-d) Dyn^G273D-transduced HeLa-M cells were puromycin-selected, doxycycline-induced, pre-incubated for 20 min at the indicated temperature, then incubated another 20 min in the presence of Alexa-488 conjugated Tf (^488Tf). Cells were then processed for immunofluorescence microscopy using a dynamin-1 specific antibody. (e, f) Nontransduced (parental) or clonal Dyn1^G273D-transduced BJAB cells with (+dox) or without (no dox) doxycycline induction were assayed for ^488Tf or ^6475C7 uptake over a 20 min period at 30° C. (white bars) or 38° C. (black bars) by flow cytometry and means plotted (±SD).
Cells were acid stripped or not and quantified by flow cytometry.

Another experiment concerns caspase-3/7. The experiment in a line: Caspase-3/7 activity assay (Apo-One). The settings on record: after induction of dynG273D, 38° C. compared to 30° C. The protocol:
The caspase-3/7 assay was performed using Apo-One Homogenous Caspase-3/7 Assay (Promega). […] Lysates were incubated at room temperature for 1 hour before reading in a fluorometer at 485/530 […].

Another experiment deals with BJAB and Colo205 cells. The experiment in a line: Transferrin (Tf) endocytosis rate by flow cytometry. The protocol: The cells were then equilibrated on ice for 30 min with Alexa-647-conjugated Tf (^647TF) and uptake at 37° C. was measured by flow cytometry. Each endocytosis rate was derived from the slope of the initial linear phase of a 4 min uptake kinetics plot (a, inset). […] Rates were normalized to the DMSO treated sample (±SEM).
Sedimented cells were resuspended in cold 2% paraformaldehyde/PBS and mean fluorescence intensity of 10,000 cells quantified with a Coulter Epics Elite-ESP flow cytometer (Hialeah, Fla.). Endocytic rates were determined from linear slopes of steady-state internal/surface plots (see, e.g., Wiley, H. S. et. al, J Biol Chem 257, 4222-9 (1982)). For temperature-shift experiments, ice binding incubations were avoided. Instead, cells were preconditioned for 20 min and maintained at 30° C. or 38° C. in binding medium, incubated an additional 0 (control) or 20 min with ^647Tf, chilled on ice for 30 min, and processed for flow cytometry to determine internal/surface ^647Tf ratios.

Experiment [2] has as its system DynG273D-transduced BJAB cells. The experiment in a line: Apoptosis assay (sub-diploid DNA, DNA fragmentation). The settings on record: induction of dynG273D and temperature-shift to 38° C. The protocol: Cells were stained with propidium iodide after ethanol fixation and RNase treatment and the amount of sub-diploid DNA was analyzed by flow cytometry as previously described, using Expo32 software with an Epics XL.MCL cytometer (Coulter Beckman), (see, e.g., Nicholson, D. W., Cell Death Differ 6, 1028-42 (1999)).

A further experiment relates to DISC. The experiment in a line: DISC immunoprecipitation. How it is done:
(a) BJAB cells were equilibrated with ^647Tf on ice, incubated for the indicated uptake interval at 37° C. or on ice, then fluorescence quantified by flow cytometry. […] DISC-associated FADD and caspase-8 were visualized by immunoblot. (c, d) Dyn^G273D-transduced BJAB cells were treated with buffer (No Dox) or doxycyline (Dox) and shifted to 38° C. for 20 min to inactivate dynamin. The cells were treated with crosslinked Apo2L/TRAIL for the indicated amounts of time and the DISC was immunoprecipitated. DISC-associated FADD and caspase-8 were visualized by immunoblot (c) or DISC-associated caspase-8 activity was measured as described previously (Sharp et al. J Biol Chem 280, 19401-409, 2005).
BJAB cells (1×10^7 per time point) were treated with Flag-Apo2L/TRAIL cross-linked by anti-FLAG M2 Abs, collected, lysed, immunoprecipitated and the DISC was analyzed as described (see, e.g., Kischkel, F. C. et al., Immunity 12, 611-20 (2000)).

The mark [3] stands for this setting: MCF7 cells, deficient in caspase-3.

“Apo2L/TRAIL: Human recombinant soluble Apo2L/TRAIL in non-tagged (trimeric) or Flag-tagged, antibody-crosslinked versions; SEQ ID NO: 7”: the “Start of depletion of full-length dynamin after stimulation” value in experiment [1] (BJAB cells, crosslinked Apo2L/TRAIL) was at most 1 h. The “Cleavage of AP2α isoform C” value in experiment [1] (BJAB, Colo205, LS1034 and SW948 cells) is “did not induce cleavage of isoform C”. Also, the Caspase processing entry in experiment [1] (Bax+/- HCT116 cells) was “stimulated processing of both caspase-8 and -3”; in experiment [1] (Bax-/- HCT116 cells), “only of caspase-8”. For the same substance, the “Proteolysis of structurally analogous adaptors (AP1α, AP3β and δ, AP4ε, β-COP, Sec23)” value in experiment [1] (Colo205 cells, similar timeframe) was “did not induce proteolysis”. For the same substance, in experiment [1] (setting [3]), the CHC cleavage result is given as “did not stimulate CHC cleavage”. Further, in experiment [1] (setting [3]), the “Processing of caspase-8 and AP2α” value was “relatively weak and slow processing of caspase-8 and AP2α”. In experiment [1] (caspase-8-deficient or FADD-deficient mutant Jurkat cell lines), the “Processing of AP2α and CHC” value is on record as “neither ligand stimulated processing of these targets”. For the same substance, the “Processing of caspase-8 and -3 and cleavage of AP2α, AP1/2β and CHC” value in experiment [1] (several cancer cell lines, susceptible Colo205, BJAB, HeLa-M, not resistant HCT8) was “cleavage of AP2α, AP1/2β, and clathrin heavy-chain (CHC)”. In addition, the “Time within which caspase processing and AP2α, AP1/2β, CHC cleavage occurred” value in experiment [1] (susceptible cell lines Colo205, BJAB, HeLa-M) was at most 2 h. The “Cleavage of AP2α and CHC” value in experiment [1] (wt Jurkat T cells) is “induced cleavage of AP2α and CHC”. The “Ligand-induced DR5 uptake” value is about 25% in the experiment on DR5 (30° C.) and about 10% in the experiment on DR5 (38° C.). The “Ligand-stimulated caspase-3/7 enzymatic activity” value in the experiment on caspase-3/7 is reported as “substantial increase”. Further, the “Inhibition of the rate of Tf endocytosis” value with BJAB and Colo205 cells (BJAB and Colo205 cells, pretreatment at 37° C.) is 75-85%. Moreover, the “Reduction of Tf endocytosis rate” value in the experiment on BJAB and Colo205 cells (Colo205 cells, extended exposure for 2 hr at 37° C.) is reported as 5 fold. Moreover, the “Apoptosis (cells with fragmented DNA)” value in experiment [2] is recorded as “augmented apoptosis”. Moreover, the “DISC assembly with Tf endocytosis blocked” value in the experiment on DISC (BJAB cells chilled on ice) was “still recruited FADD and caspase-8 to their respective receptors and processed caspase-8”. Further, the “DISC formation, caspase-8 processing and activity despite endocytosis inhibition” value in the experiment with DISC (dynG273D BJAB cells, 38° C.) is “comparable DISC formation, caspase-8 processing, and caspase-8 activity in the DISC”.
